Measured values published in patent publication US10099045B2, “Administration of antibiotics and therapeutic agents” (priority 2008, dated 2018).
Values joined by “and” are separate entries in the source; they are usually repeats but may differ in a detail not shown here. Equal entries are not always repeated. Where two headings read alike, the source gives them in different places.

What was measured:
[1] = system: STA 29213 MSSA; assay: MIC of Cefazolin, broth dilution method; assay type: cell-based, S. aureus; details: for MIC/Cefazolin: single determinations
Source text: (§1) Accordingly, further tests of Cephazolin with a range of different MRSA strains at concentrations well above the dose achievable by IV delivery were made to understand these finding. The Minimum inhibitory concentration (MIC) of Cephazolin with respect to these various strains is reported below in Table 1 in units are in .mu·g/ml of Cefazolin using the broth dilution method. MIC is the lowest concentration of an antimicrobial that will inhibit the visible growth of a microorganism after overnight incubation. STA 29213 is the conventional strain of S. aureus, showing normal sensitivity to Cefazolin with an MIC of 0.5.mu·g/ml.
(§2) The colony count in the last column is just a quality control measure to insure the correct innooculum.

[2] = system: MRSA 116; assay: MIC of Cefazolin, broth dilution method; assay type: cell-based, Staphylococcus aureus
Source text: as §1, §2

[3] = system: MRSA 142 ATCC 33591 MRSA; assay: MIC of Cefazolin, broth dilution method; assay type: cell-based, Staphylococcus aureus
Source text: as §1, §2

[4] = system: MRSA 143; assay: MIC of Cefazolin, broth dilution method; assay type: cell-based, Staphylococcus aureus
Source text: as §1, §2

[5] = system: MRSA 144; assay: MIC of Cefazolin, broth dilution method; assay type: cell-based, Staphylococcus aureus
Source text: as §1, §2

[6] = system: MRSA 145; assay: MIC of Cefazolin, broth dilution method; assay type: cell-based, Staphylococcus aureus
Source text: as §1, §2

[7] = system: MRSA 146; assay: MIC of Cefazolin, broth dilution method; assay type: cell-based, Staphylococcus aureus
Source text: as §1, §2

[8] = system: MRSA 147; assay: MIC of Cefazolin, broth dilution method; assay type: cell-based, Staphylococcus aureus
Source text: as §1, §2

[9] = system: MRSA 148; assay: MIC of Cefazolin, broth dilution method; assay type: cell-based, Staphylococcus aureus
Source text: as §1, §2

[10] = system: MRSA 149; assay: MIC of Cefazolin, broth dilution method; assay type: cell-based, Staphylococcus aureus
Source text: as §1, §2

[11] = system: MRSA 150; assay: MIC of Cefazolin, broth dilution method; assay type: cell-based, Staphylococcus aureus
Source text: as §1, §2

[12] = system: MRSA 151; assay: MIC of Cefazolin, broth dilution method; assay type: cell-based, Staphylococcus aureus
Source text: as §1, §2

[13] = system: MRSA 152; assay: MIC of Cefazolin, broth dilution method; assay type: cell-based, Staphylococcus aureus
Source text: as §1, §2

[14] = system: MRSA 56 (494); assay: MIC of Cefazolin, broth dilution method; assay type: cell-based, Staphylococcus aureus
Source text: as §1, §2

[15] = system: Mu 3 MRSA hVISA; assay: MIC of Cefazolin, broth dilution method; assay type: cell-based, Staphylococcus aureus; details: for MIC/Cefazolin: single determinations
Source text: as §1, §2

[16] = system: Mu 50 MRSA VISA; assay: MIC of Cefazolin, broth dilution method; assay type: cell-based, Staphylococcus aureus
Source text: as §1, §2

[17] = system: STA 25923 MSSA; assay: MIC of Cefazolin, broth dilution method; assay type: cell-based, Staphylococcus aureus
Source text: as §1, §2

[18] = Adipose tissue and serum concentration after subcutaneous infusion with transcutaneous ultrasound, elective abdominoplasty; details: for blood serum concentration: 1 gm subcutaneous plus ultrasound, when surgery was completed about an hour later
Method: A prophylactic dose of the antibiotic Cafazolin was delivered to a patient by the above procedure prior to elective abdominoplasty using the Silberg Tissue Preparation Systems TM Model ME 800 (9801427) Mettler Surgical, Anaheim, Calif.). About 250 cc of prewarmed saline containing 1 gm of Cefazolin was injected under a surgical incision line 201 that was about 5 cm long. Small sample of adipose tissue where taken during the surgical procedure to determine if the Cefazolin would remain above desired concentration reported by Ohge et al., and thus remain sufficiently high through the procedure. Further, blood serum samples were taken during the procedure to determine the potential for a longer term systemic delivery.

[19] = system: methicillin-sensitive Staphylococcus aureus (MSSA), Klebsiella pneumoniae, Escherichia coli, Streptococcus spp.; details: 360 MSSA, 204 K. pneumoniae, 314 E. coli, 30 Streptococcus spp. isolates; cited from earlier work
[20] = intravenous bolus 1 g, cited from earlier work
[21] = Staphylococcus aureus, read-out: Median MIC

## Cc1nnc(SCC2=C(C(=O)O)N3C(=O)[C@@H](NC(=O)Cn4cnnn4)[C@H]3SC2)s1 [Cefazolin]
[1]; [21]
  MIC: 0.5 µg/mL
[1]; MSSA strain
  MIC/Cefazolin: 1 µg/mL
[1]; conventional S. aureus strain STA 29213
  MIC/Cefazolin: 0.5 µg/mL
[2]; MRSA 116, single determinations
  MIC/Cefazolin: 512 µg/mL and 256 µg/mL
[2]; Staphylococcus aureus, MRSA 116, read-out: Median MIC
  MIC: 256 µg/mL
[3]; MRSA 142 ATCC 33591, single determinations
  MIC/Cefazolin: 256 µg/mL
[3]; Staphylococcus aureus, MRSA 142 ATCC 33591, read-out: Median MIC
  MIC: 256 µg/mL
[4]; MRSA 143, single determinations
  MIC/Cefazolin: 64 µg/mL and 128 µg/mL
[4]; Staphylococcus aureus, MRSA 143, read-out: Median MIC
  MIC: 128 µg/mL
[5]; MRSA 144, single determinations
  MIC/Cefazolin: 64 µg/mL and 128 µg/mL
[5]; Staphylococcus aureus, MRSA 144, read-out: Median MIC
  MIC: 64 µg/mL
[6]; MRSA 145, single determinations
  MIC/Cefazolin: 128 µg/mL
[6]; Staphylococcus aureus, MRSA 145, read-out: Median MIC
  MIC: 128 µg/mL
[7]; MRSA 146, single determinations
  MIC/Cefazolin: 64 µg/mL and 128 µg/mL
[7]; Staphylococcus aureus, MRSA 146, read-out: Median MIC
  MIC: 64 µg/mL
[8]; MRSA 147, single determinations
  MIC/Cefazolin: 64 µg/mL
[8]; Staphylococcus aureus, MRSA 147, read-out: Median MIC
  MIC: 64 µg/mL
[9]; MRSA 148, single determinations
  MIC/Cefazolin: 256 µg/mL and 128 µg/mL
[9]; Staphylococcus aureus, MRSA 148, read-out: Median MIC
  MIC: 256 µg/mL
[10]; MRSA 149, single determinations
  MIC/Cefazolin: 128 µg/mL
[10]; Staphylococcus aureus, MRSA 149, read-out: Median MIC
  MIC: 128 µg/mL
[11]; MRSA 150, single determinations
  MIC/Cefazolin: 512 µg/mL
[11]; Staphylococcus aureus, MRSA 150, read-out: Median MIC
  MIC: 512 µg/mL
[12]; MRSA 151, single determinations
  MIC/Cefazolin: 128 µg/mL
[12]; Staphylococcus aureus, MRSA 151, read-out: Median MIC
  MIC: 128 µg/mL
[13]; MRSA 152, single determinations
  MIC/Cefazolin: 4 µg/mL and 8 µg/mL
[13]; Staphylococcus aureus, MRSA 152, read-out: Median MIC
  MIC: 4 µg/mL
[14]; [21]
  MIC: 128 µg/mL
[14]; single determinations
  MIC/Cefazolin: 64 µg/mL and 128 µg/mL
[15]; MU 3, most resistant strain
  MIC relative to the dose required for normal strains: about 50 times
[15]; Mu 3 MRSA hVISA
  MIC/Cefazolin: 512 µg/mL
[15]; Mu 3 MRSA hVISA, listed as antibiotic
  MIC/Cefazolin: about 512 μg/ml
[15]; Staphylococcus aureus, Mu 3 MRSA hVISA, read-out: Median MIC
  MIC: 512 µg/mL
[16]; [21]
  MIC: 256 µg/mL
[16]; single determinations
  MIC/Cefazolin: 256 µg/mL
[17]; [21]
  MIC: 0.5 µg/mL
[17]; single determinations
  MIC/Cefazolin: 0.5 µg/mL
[18]
  blood serum concentration: about 10 μg/ml
[18]; listed as antibiotic
  blood serum concentration: less than 10 μg/ml
[18]; human, in vivo
  tissue concentration relative to intravenous administration of Ohge et al.: about 50 times
[18]; human, in vivo, 1 gm
  Kp: < 10
[19]
  tissue level to achieve minimum inhibitory concentrations for 80% (MIC80) of four bacterial species: about 4 μg/ml
[20]; after about 4 hours
  serum concentration: about 10 μg/ml
[20]; after slightly more than 2 hours of surgery
  mean tissue concentration: below 4 μg/ml
[20]; an hour after surgery commenced
  mean tissue concentration: about 10 μg/ml
[20]; an hour after surgery commenced, listed as antibiotic
  mean tissue concentration: 10 µg/mL
[20]; end of the same time period (slightly more than 2 hours)
  serum concentration: ~40000 ng/mL
[20]; start of the same time period (an hour after surgery commenced)
  serum concentration: about 80 μg/ml
